{"source": "patent EP4635500A1", "about": "“THERAPEUTIC AGENT FOR BACTERIAL INFECTION” (Sumitomo Pharma Co., Ltd., priority 2022, dated 2024)", "type_in_all_cases": "cell-based", "key": {"[1]": {"tested_on": "Porphyromonas spp.", "experiment": "MIC, agar dilution, anaerobic bacteria (Example 9, Tables 19, 24)", "conditions": "for MIC: (n)=Compound A µg/mL, 0=Compound A alone antibacterial"}, "[2]": {"tested_on": "Enterobacter cloacae complex", "experiment": "MIC and MBC, broth microdilution (Example 4, Table 3)", "conditions": "Enterobacter cloacae complex CDC-164 (NMC-A)"}, "[3]": {"tested_on": "Morganella morganii", "experiment": "MIC and MBC, broth microdilution (Example 4, Table 3)", "conditions": "Morganella morganii CDC-57 (NDM-1)"}, "[4]": {"tested_on": "Klebsiella pneumoniae", "experiment": "MIC and MBC, broth microdilution (Example 4, Table 3)", "conditions": "Klebsiella pneumoniae; for MIC: read-out: MIC"}, "[5]": {"tested_on": "Klebsiella pneumoniae", "experiment": "MIC, broth microdilution, standard strains and Japanese clinical isolates (Example 5, Table 4)"}, "[6]": {"conditions": "table at the place of Table 24, Prevotella spp."}, "[7]": {"conditions": "ATCCBAA2344, Klebsiella pneumoniae ATCC BAA-2344 (KPC-2)"}, "[8]": {"conditions": "ATCCBAA2470, Klebsiella pneumoniae ATCC BAA-2470 (NDM-1)"}, "[9]": {"conditions": "ATCCBAA2524, Klebsiella pneumoniae ATCC BAA-2524 (OXA-48)"}, "[10]": {"conditions": "Klebsiella pneumoniae CDC-112 (KPC-3)"}, "[11]": {"conditions": "Klebsiella pneumoniae CDC-505 (NDM-1)"}, "[12]": {"conditions": "Klebsiella pneumoniae KUB3607 (IMP-1)"}, "[13]": {"conditions": "NCTC13440, Klebsiella pneumoniae NCTC13440 (VIM-1)"}}, "note": "Read-outs that look alike come from different tables or passages of the source.", "data": [{"smiles": "C[C@@H](O)[C@H]1C(=O)N2C(C(=O)O)=C(S[C@@H]3CN[C@H](C(=O)N(C)C)C3)[C@H](C)[C@H]12", "note": "[MEPM, meropenem]", "values": [{"measurement": "MIC", "setting": "[1]; KUB No. 6670 Porphyromonas gingivalis", "result": "≤ 0.03", "unit": "µg/mL"}, {"measurement": "MIC", "setting": "[1]; KUB No. 6671 Porphyromonas gingivalis", "result": "≤ 0.03", "unit": "µg/mL"}, {"measurement": "MIC", "setting": "[1]; KUB No. 6672 Porphyromonas gingivalis", "result": "≤ 0.03", "unit": "µg/mL"}, {"measurement": "MIC", "setting": "[1]; KUB No. 6673 Porphyromonas gingivalis", "result": "≤ 0.03", "unit": "µg/mL"}, {"measurement": "MIC", "setting": "[1]; KUB No. 6674 Porphyromonas gingivalis", "result": "≤ 0.03", "unit": "µg/mL"}, {"measurement": "MIC", "setting": "[1]; KUB No. 6676 Porphyromonas gingivalis", "result": "≤ 0.03", "unit": "µg/mL"}, {"measurement": "MIC", "setting": "[1]; KUB No. 6677 Porphyromonas gingivalis", "result": "≤ 0.03", "unit": "µg/mL"}, {"measurement": "MIC", "setting": "[1]; KUB No. 6678 Porphyromonas gingivalis", "result": "≤ 0.03", "unit": "µg/mL"}, {"measurement": "MIC", "setting": "[1]; KUB No. 6679 Porphyromonas gingivalis", "result": "≤ 0.03", "unit": "µg/mL"}, {"measurement": "MIC", "setting": "[1]; KUB No. 6680 Porphyromonas gingivalis", "result": "≤ 0.03", "unit": "µg/mL"}, {"measurement": "MIC", "setting": "[1]; KUB No. 6681 Porphyromonas gingivalis", "result": "≤ 0.03", "unit": "µg/mL"}, {"measurement": "MIC", "setting": "[1]; KUB No. 6682 Porphyromonas gingivalis", "result": "≤ 0.03", "unit": "µg/mL"}, {"measurement": "MIC", "setting": "[1]; KUB No. 6683 Porphyromonas gingivalis", "result": "≤ 0.03", "unit": "µg/mL"}, {"measurement": "MIC", "setting": "[1]; KUB No. 6684 Porphyromonas gingivalis", "result": "≤ 0.03", "unit": "µg/mL"}, {"measurement": "MIC", "setting": "[1]; KUB No. 6685 Porphyromonas gingivalis", "result": "≤ 0.03", "unit": "µg/mL"}, {"measurement": "MIC", "setting": "[1]; KUB No. 6686 Porphyromonas gingivalis", "result": "≤ 0.03", "unit": "µg/mL"}, {"measurement": "MIC", "setting": "[1]; KUB No. 6687 Porphyromonas gingivalis", "result": "≤ 0.03", "unit": "µg/mL"}, {"measurement": "MIC", "setting": "[1]; KUB No. 6688 Porphyromonas gingivalis", "result": 0.03, "unit": "µg/mL"}, {"measurement": "MIC", "setting": "[1]; Porphyromonas, KUB No. 6665 Porphyromonas assaccharolytica", "result": "≤ 0.03", "unit": "µg/mL"}, {"measurement": "MIC50", "setting": "[1]; Porphyromonas, n=26, combination: Compound A at 4 ug/mL, read-out: MIC50", "result": "≤ 0.03", "unit": "µg/mL"}, {"measurement": "MIC90", "setting": "[1]; Porphyromonas, n=26, combination: Compound A at 4 ug/mL, read-out: MIC90", "result": "≤ 0.03", "unit": "µg/mL"}, {"measurement": "MIC50", "setting": "[1]; [6]", "result": "≤0.03", "unit": "µg/mL"}, {"measurement": "MIC90", "setting": "[1]; [6]", "result": "≤0.03", "unit": "µg/mL"}, {"measurement": "MICrange", "setting": "[1]; [6]", "result": "≤0.03", "unit": "µg/mL"}, {"measurement": "MBC", "setting": "[2]", "result": 32, "unit": "µg/mL"}, {"measurement": "MIC", "setting": "[2]", "result": 32, "unit": "µg/mL"}, {"measurement": "MBC", "setting": "[3]", "result": 8, "unit": "µg/mL"}, {"measurement": "MIC", "setting": "[3]", "result": 8, "unit": "µg/mL"}, {"measurement": "MBC", "setting": "[4]; [7]", "result": 32, "unit": "µg/mL"}, {"measurement": "MIC", "setting": "[4]; [7]", "result": 16, "unit": "µg/mL"}, {"measurement": "MBC", "setting": "[4]; [8]", "result": 32, "unit": "µg/mL"}, {"measurement": "MIC", "setting": "[4]; [8]", "result": 32, "unit": "µg/mL"}, {"measurement": "MBC", "setting": "[4]; [9]", "result": 4, "unit": "µg/mL"}, {"measurement": "MIC", "setting": "[4]; [9]", "result": 1, "unit": "µg/mL"}, {"measurement": "MBC", "setting": "[4]; [10]", "result": 32, "unit": "µg/mL"}, {"measurement": "MIC", "setting": "[4]; [10]", "result": 32, "unit": "µg/mL"}, {"measurement": "MBC", "setting": "[4]; [11]", "result": 64, "unit": "µg/mL"}, {"measurement": "MIC", "setting": "[4]; [11]", "result": 64, "unit": "µg/mL"}, {"measurement": "MBC", "setting": "[4]; [12]", "result": 8, "unit": "µg/mL"}, {"measurement": "MIC", "setting": "[4]; [12]", "result": 8, "unit": "µg/mL"}, {"measurement": "MBC", "setting": "[4]; [13]", "result": 64, "unit": "µg/mL"}, {"measurement": "MIC", "setting": "[4]; [13]", "result": 16, "unit": "µg/mL"}, {"measurement": "MIC", "setting": "[5]; ATCCBAA1705, KUB3152 Klebsiella pneumoniae ATCC BAA-1705, KPC-2", "result": 4, "unit": "µg/mL"}, {"measurement": "MIC", "setting": "[5]; ATCCBAA1898, KUB3996 Klebsiella pneumoniae ATCC BAA-1898, KPC-2", "result": 32, "unit": "µg/mL"}, {"measurement": "MIC", "setting": "[5]; ATCCBAA1899, KUB3997 Klebsiella pneumoniae ATCC BAA-1899, KPC-2", "result": 8, "unit": "µg/mL"}, {"measurement": "MIC", "setting": "[5]; ATCCBAA1900, KUB3998 Klebsiella pneumoniae ATCC BAA-1900, KPC-3", "result": 8, "unit": "µg/mL"}, {"measurement": "MIC", "setting": "[5]; ATCCBAA1902, KUB3153 Klebsiella pneumoniae ATCC BAA-1902, KPC-3", "result": 64, "unit": "µg/mL"}, {"measurement": "MIC", "setting": "[5]; ATCCBAA1903, KUB3154 Klebsiella pneumoniae ATCC BAA-1903, KPC-2", "result": 4, "unit": "µg/mL"}, {"measurement": "MIC", "setting": "[5]; ATCCBAA1904, KUB3999 Klebsiella pneumoniae ATCC BAA-1904, KPC-3", "result": 2, "unit": "µg/mL"}, {"measurement": "MIC", "setting": "[5]; ATCCBAA1905, KUB3155 Klebsiella pneumoniae ATCC BAA-1905, KPC-2", "result": 8, "unit": "µg/mL"}, {"measurement": "MIC", "setting": "[5]; ATCCBAA2078, KUB4000 Klebsiella pneumoniae ATCC BAA-2078, KPC-3", "result": 4, "unit": "µg/mL"}, {"measurement": "MIC", "setting": "[5]; ATCCBAA2146, KUB4011 Klebsiella pneumoniae ATCC BAA-2146, NDM-1", "result": 64, "unit": "µg/mL"}, {"measurement": "MIC", "setting": "[5]; ATCCBAA2342, KUB4003 Klebsiella pneumoniae ATCC BAA-2342, KPC-3", "result": 4, "unit": "µg/mL"}, {"measurement": "MIC", "setting": "[5]; ATCCBAA2343, KUB4004 Klebsiella pneumoniae ATCC BAA-2343, KPC-3", "result": 16, "unit": "µg/mL"}, {"measurement": "MIC", "setting": "[5]; ATCCBAA2344, KUB3156 Klebsiella pneumoniae ATCC BAA-2344, KPC-2", "result": 4, "unit": "µg/mL"}, {"measurement": "MIC", "setting": "[5]; ATCCBAA2470, KUB3157 Klebsiella pneumoniae subsp. pneumoniae ATCC BAA-2470, NDM-1", "result": 16, "unit": "µg/mL"}, {"measurement": "MIC", "setting": "[5]; ATCCBAA2473, KUB4009 Klebsiella pneumoniae ATCC BAA-2473, NDM-1", "result": 64, "unit": "µg/mL"}, {"measurement": "MIC", "setting": "[5]; ATCCBAA2524, KUB3158 Klebsiella pneumoniae subsp. pneumoniae ATCC BAA-2524, OXA-48", "result": 0.25, "unit": "µg/mL"}, {"measurement": "MIC", "setting": "[5]; KUB3163 Klebsiella pneumoniae Clinical isolate, IMP-1", "result": 0.5, "unit": "µg/mL"}, {"measurement": "MIC", "setting": "[5]; KUB3164 Klebsiella pneumoniae Clinical isolate, IMP-6", "result": 2, "unit": "µg/mL"}, {"measurement": "MIC", "setting": "[5]; KUB3166 Klebsiella pneumoniae Clinical isolate, IMP-1", "result": 0.5, "unit": "µg/mL"}, {"measurement": "MIC", "setting": "[5]; KUB3606 Klebsiella pneumoniae Clinical isolate, KPC-38", "result": 256, "unit": "µg/mL"}, {"measurement": "MIC", "setting": "[5]; KUB3607 Klebsiella pneumoniae Clinical isolate, IMP-1", "result": 0.5, "unit": "µg/mL"}, {"measurement": "MIC", "setting": "[5]; KUB3628 Klebsiella pneumoniae Clinical isolate, IMP-1", "result": 8, "unit": "µg/mL"}, {"measurement": "MIC", "setting": "[5]; KUB3630 Klebsiella pneumoniae Clinical isolate, IMP-1", "result": 1, "unit": "µg/mL"}, {"measurement": "MIC", "setting": "[5]; KUB3631 Klebsiella pneumoniae Clinical isolate, IMP-1", "result": 4, "unit": "µg/mL"}, {"measurement": "MIC", "setting": "[5]; KUB3633 Klebsiella pneumoniae Clinical isolate, IMP-6", "result": 1, "unit": "µg/mL"}, {"measurement": "MIC", "setting": "[5]; KUB3634 Klebsiella pneumoniae Clinical isolate, IMP-6", "result": 1, "unit": "µg/mL"}, {"measurement": "MIC", "setting": "[5]; KUB3635 Klebsiella pneumoniae Clinical isolate, IMP-1", "result": 32, "unit": "µg/mL"}, {"measurement": "MIC", "setting": "[5]; NCTC13439, KUB3159 Klebsiella pneumoniae NCTC13439, VIM-1", "result": 0.5, "unit": "µg/mL"}, {"measurement": "MIC", "setting": "[5]; NCTC13440, KUB3160 Klebsiella pneumoniae NCTC13440, VIM-1", "result": 0.5, "unit": "µg/mL"}]}]}
